# Experimental data published in patent US8257725B2, “Delivery of highly lipophilic agents via medical devices” (Abbott Laboratories, priority 1997, dated 2012).
# Legend:
# [1] = Pharmacokinetics after single intravenous dose in cynomolgus monkey; conditions: single 2.5 mg/kg intravenous dose
# [2] = Octanol/water partition coefficient, shake-flask method; type: physicochemical; conditions: for transfer coefficient (P divided by S), order: FIG. 21, S = equilibrium aqueous solubility (μg/ml); for lipophilicity (partition coefficient octanol/water): n-octanol/buffered water
# Procedure: “Solubility” is based on a standard measure used in medicinal chemistry. The octanol-water partition coefficient (P) is the ratio of distribution of a compound in a mixture of 1-octanol and H2O. LogP is the base 10 logarithm of the partition coefficient.
# In the measurement of the partition coefficient (octanol/water), preliminary studies were conducted to determine the optimum drug concentration for each test, and the appropriate time for establishing the partition equilibrium. All experiments were carried out by two different analysts and on multiple drug lots.
# A transfer coefficient, τ, can be defined as P divided by S, where P equals the partition coefficient and S equals theequilibrium aqueous solubility, (μg/ml) as shown in FIG. 21. […] Where S equals the equilibrium aqueous solubility of the amorphous form of the drug were possible.
# [3] = Aqueous solubility, shake-flask method; conditions: amorphous DES drugs; dexamethasone crystalline
# [4] = Pig model, zotarolimus concentrations in tissues after ZoMaxx stents; type: in vivo; conditions: eluted from ZoMaxx stents, FIG. 25
# [5] = representative summary for suitable beneficial agents; cited from earlier work
# [6] = Six-hour elution from PC1036-coated coupons in pH 7.4 phosphate buffered saline; type: physicochemical; conditions: for amount released from the coupon: after six hours, PBS pH 7.4, 37° C.; for amount remaining on the coupon: six-hour elution
# Procedure: Prior to any experimentation, coated stainless steel coupons were prepared. These coupons were 316L electropolished stainless steel discs (10 mm diameter). This size was chosen because the surface area of one side of the coupon is similar to the surface area of a 15-mm open cell BiodivYsio stent. […]. The cleaning was a two-step process in which the coupons are sonicated for 3 minutes in dichloromethylene and 3 minutes in ethanol. The coupons were allowed to dry at room temperature. One side of the coupon was coated using a filtered 20-mg/mL solution of phosphoryl choline polymer PC1036 (product of Biocompatibles Ltd., Famham, Surrey, UK) in ethanol. Twenty μL PC solution was placed onto the coupon using a gas tight glass syringe, ensuring that the entire surface was coated but not spilling over the sides of the coupon. The coupons were initially air dried and then cured at 70° C. for 16 hours. They were then sent for gamma irradiation at <25 KGy. The resulting PC coating thickness was close to that of the stent and thick enough to accommodate the desired loaded drug dose, as graphically represented in FIG. 9A-B. FIG. 9A-B is a top and side view of a coated stainless steel coupon 30, having a PC-coating 20 on a electropolished stainless steel disc.
# In these experiments, beneficial agents were loaded onto coupons and elution profiles examined. In general, the procedure is as follows. Twelve PC-coated coupons were loaded with each drug. The solutions of the drugs were usually 5.0 mg/mL in 100% ethanol and were filtered with a 0.45 μm filter prior to use.
# The coupons were weighed before loading with the drug solution. To load 100 μg of drug, 20 μL of solution was placed (e.g., pipetted) on the center of the PC coated side of the coupon. The coupon was placed in a vial for 30 minutes with the lid closed to allow the drug to penetrate the coating. The lid was removed and the coupon was allowed to dry for an additional 90 minutes. To ensure that the coupon was completely dry, the coupon was weighed, and after 15 minutes the coupon was weighed a third time. When two weightings of the coupon were the same, the coupon was considered dry. The loaded, dry coupons were stored in a refrigerator protected from light.
# Six coated coupons of each drug were used for the elution experiments. The coupons were individually placed, coating side up, in small metal cups to hold the coupon and to allow movement to a new vial at each time point. The coupons were usually placed in a vial containing 10 mL of pH 7.4 phosphate buffered saline. The vials were stored in an orbital shaker, with horizontal shaking of 100 rpm, at 37° C. for at least 30 minutes before insertion of a coupon to allow the solution to equilibrate at the desired temperature. After the desired time had lapsed, the coupon holder was lifted and allowed to drain. It was then placed into a pre-warmed vial corresponding to the next time point. This procedure continued until the predetermined time had elapsed. At that point, the coupons went through a drug extraction step as outlined earlier. The amount of drug in the elution samples was determined by HPLC.
# [7] = Stability of drug on PC-coated stents after ETO sterilization (HPLC); type: physicochemical
# Procedure: In these experiments, beneficial agents were loaded onto stents and the stability of the two drugs was examined. In general, the procedure was as follows. Multiple PC-coated stents were loaded with each drug combination from solution. The solutions of the drugs were usually in the range of 2-20 mg/mL of zotarolimus and 10.0 mg/mL dexamethasone in 100% ethanol, with ˜10% PC1036 added to the solution to enhance film formation.
# The stents were weighed before loading with the drug solution. To load approximately […] of each drug, a solution with equal amounts of zotarolimus and dexamethasone was sprayed onto the stent in a controlled fashion. The stent was allowed to dry before the stents were re-weighed to determine total drug load. The loaded, dry stents were stored in a refrigerator and were protected from light.
# After drug loading, stents were crimped onto catheter balloons and packaged into medical product Tyvek pouches for ETO (ethylene oxide) sterilization. The ETO sterilization process is standard in the medical device industry to ensure product safety. […]
# For each drug, multiple stents were used to evaluate the purity and stability of the drug loaded by the above procedure. […] The concentration and the presence of degradant-related impurities of the drug in the extraction solution were analyzed by HPLC.
# [8] = alone, in the absence of zotarolimus
compound,measurement,setting,value
40-epi-N-[2′-pyridone]-rapamycin [Example 2-pyridone],t1/2,[1]; terminal elimination half-life,2.8 h
CC(=O)O[C@H]1C(=O)[C@@]2(C)[C@H]([C@H](OC(=O)c3ccccc3)[C@]3(O)C[C@H](OC(=O)[C@H](O)[C@@H](NC(=O)c4ccccc4)c4ccccc4)C(C)=C1C3(C)C)[C@]1(OC(C)=O)CO[C@@H]1C[C@@H]2O [Paclitaxel],"transfer coefficient (P divided by S), order",[2],zotarolimus>>paclitaxel>>rapamycin>dexamethasone
same,"Aqueous solubility, increasing order",[3],"paclitaxel, zotarolimus, rapamycin, and dexamethasone (crystalline)"
"3 S,6R,7E,9R,10R,12R,14S,15E,17E,19E,21S, 23S,26R,27R,34aS)-9,10,12,13,14,21,22,23,24,25,26,27,32,33,34,34a-Hexadecahydro-9,27-dihydroxy-3-[(1R)-2-[(1S,3R,4R)-3-methoxy-4-tetrazol-1-yl)cyclohexyl]-1-methylethyl]-10,21-dimethoxy-6,8,12,14,20,26-hexamethyl-23,27-epoxy-3H-pyrido[2,1-c][1,4]oxaazacyclohentriacontine-1,5,11,28,29(4H,6H,31H)-pentone [Zotarolimus]","transfer coefficient (P divided by S), order",[2],zotarolimus>>paclitaxel>>rapamycin>dexamethasone
same,lipophilicity (partition coefficient octanol/water),"[2]; shake-flask, FIG. 20",most lipophilic of all DES drugs tested
same,lipophilicity relative to rapamycin,"[2]; shake-flask, FIG. 20",more than two times as lipophilic as rapamycin
same,concentration in arterial tissue adjacent to the stent placement,[4]; all periods out to 28 days,substantial concentrations
same,"concentration in distal, unstented and subjacent myocardium and unstented and distal coronary arteries",[4]; throughout 28 days,therapeutically significant concentrations
same,LogP Values,[5],>4.5
"CO[C@H]1C[C@@H]2CC[C@@H](C)[C@@](O)(O2)C(=O)C(=O)N2CCCC[C@H]2C(=O)O[C@H]([C@H](C)C[C@@H]2CC[C@H](n3ncnn3)[C@H](OC)C2)CC(=O)[C@H](C)/C=C(\C)[C@@H](O)[C@@H](OC)C(=O)[C@H](C)C[C@H](C)/C=C/C=C/C=C/1C (single isomer, unassigned; less polar) [Example 1, 42-Epi-(tetrazolyl)-rapamycin (less polar isomer)]",terminal elimination half-life (t1/2) compared to rapamycin,[1],substantially shorter
OCCN(CCO)c1nc(N2CCCCC2)c2nc(N(CCO)CCO)nc(N3CCCCC3)c2n1 [Dipyridamole],amount released from the coupon,[6]; [8],~90%
same,amount released from the coupon,[6]; in the presence of zotarolimus,about 52%
"CCCCN(CCCC)C(=O)CN1C[C@H](c2ccc3c(c2)OCO3)[C@@H](C(=O)O)[C@@H]1c1ccc(OC)cc1 [ABT-627, atrasentan]",amount released from the coupon,[6]; [8],50%
same,amount released from the coupon,[6]; in the presence of zotarolimus,less than 10%
CO[C@H]1C[C@@H]2CC[C@@H](C)[C@@](O)(O2)C(=O)C(=O)N2CCCC[C@H]2C(=O)O[C@H]([C@H](C)C[C@@H]2CC[C@@H](O)[C@H](OC)C2)CC(=O)[C@H](C)/C=C(\C)[C@@H](O)[C@@H](OC)C(=O)[C@H](C)C[C@H](C)/C=C/C=C/C=C/1C [Rapamycin],"transfer coefficient (P divided by S), order",[2],zotarolimus>>paclitaxel>>rapamycin>dexamethasone
same,lipophilicity (partition coefficient octanol/water),"[2]; shake-flask, FIG. 20",most lipophilic compounds in the group tested
same,LogP Values,[5],>4.5
same,"Aqueous solubility, increasing order",[3],"paclitaxel, zotarolimus, rapamycin, and dexamethasone (crystalline)"
C[C@@H]1C[C@H]2[C@@H]3CCC4=CC(=O)C=C[C@]4(C)[C@@]3(F)[C@@H](O)C[C@]2(C)[C@@]1(O)C(=O)CO [Dexamethasone],amount remaining on the coupon,[6]; coupon containing dexamethasone and zotarolimus,~70%
same,amount remaining on the coupon,[6]; no zotarolimus present,25%
same,degradation in the ETO sterilization environment,[7]; dexamethasone-only coating,degraded
same,degradation in the ETO sterilization environment,"[7]; loaded in combination with zotarolimus, 1-to-1 ratio",did not degrade
same,LogP Values,[5],~1.9–2.2
same,"Aqueous solubility, increasing order",[3],"paclitaxel, zotarolimus, rapamycin, and dexamethasone (crystalline)"
